Drawing on US20100160226A1, “Y-RECEPTOR AGONISTS” (7TM PHARMA A/S, priority 2007, published 2010), this text covers EC50 and level for six compounds.

The first data set has as its target T1, human Y1 receptor (Homo sapiens, UniProt P25929).
T1 construct: expressed in transfected cells; host or cells: COS-7
T1 sequence (P25929 1-384): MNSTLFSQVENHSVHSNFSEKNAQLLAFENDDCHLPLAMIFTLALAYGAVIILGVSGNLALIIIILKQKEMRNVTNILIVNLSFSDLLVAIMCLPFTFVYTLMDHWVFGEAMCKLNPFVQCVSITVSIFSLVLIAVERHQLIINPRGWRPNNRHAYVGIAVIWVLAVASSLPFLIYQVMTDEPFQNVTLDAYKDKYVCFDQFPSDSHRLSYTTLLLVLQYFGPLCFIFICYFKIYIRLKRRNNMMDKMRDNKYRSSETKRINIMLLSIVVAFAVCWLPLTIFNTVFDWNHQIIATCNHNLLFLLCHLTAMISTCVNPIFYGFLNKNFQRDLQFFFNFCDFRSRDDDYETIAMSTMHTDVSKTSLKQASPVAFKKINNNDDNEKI
The data set can be described thus: Human Y1 receptor potency assay (inositol phosphate turnover). In kind it is cell-based. Particulars: COS-7 cells transfected with human Y1 receptor and Gqi5, read-out: hY1 EC50. How it is done:
Potency of the test compounds on the human Y2 receptor is determined by performing dose-response experiments in COS-7 cells transiently transfected with the human Y2 receptor as well as a promiscuous G protein, Gqi5 which ensures that the Y2 receptor couples through a Gq pathway leading to an increase in inositol phosphate turnover.
Cells are washed twice in buffer, 20 mM HEPES, pH 7.4, supplemented with 140 mM NaCl, 5 mM KCl, 1 mM MgSO4, 1 mM CaCl2, 10 mM glucose, 0.05% (w/v) bovine serum; and are incubated in 0.5 ml buffer supplemented with 10 mM LiCl at 37 C for 30 min. After stimulation with various concentrations of peptide for 45 min at 37 C, cells are extracted with 10% ice-cold perchloric acid followed by incubation on ice for 30 min. The resulting supernatants are neutralized with KOH in HEPES buffer, and the generated [3H]-inositol phosphate are purified on Bio-Rad AG 1-X8 anion-exchange resin and counted in a beta counter. Determinations are made in duplicates. EC50 values were calculated using a standard pharmacological data handling software, Prism 3.0 (graphPad Sofware, San Diego, USA).
Protocol as for the Y2 potency assay, except that human Y1-transformed COS-7 cells are used.
Take “H-APLEPVYPGDNATPEQMAQYAADLRRYINTITRQRY-NH2 [[Thr30, Ile31, Gln34]hPP]”: the EC50 was > 1000 nM. Same read-out and setting: the result for “H-APLEPVYPGDNATPEQMAQYAADLRRYINTLTRQRY-NH2 [[Thr30, Gln34]hPP]” reads > 1000 nM; that for “H-LEPVYPGDNATPEQMAQYAADLRRYINMLTRQRY-NH2 [[Gln34]hPP3-36, reference compound]”, > 1000 nM; that for “H-PLEPVYPGDNATPEQMAQYAADLRRYINTITRQRY-NH2 [[Thr30, Ile31, Gln34]hPP2-36]”, > 1000 nM.

“H-PLEPVYPGDNATPEQMAQYAADLRRYINTLTRQRY-NH2 [[Thr30, Gln34]hPP2-36]”: the EC50 is > 1000 nM.

Tested on in the next data set: not listed separately
The data set can be described thus: in vivo. Also on record: species or system cyno monkeys. The conditions noted are these: cynomolgus monkey. From the text: PYY itself is know to be extremely emetic when administered peripherally, in fact PYY was discovered-for “the second time” -in 1989 as the biologically active entity in a chromatographic fraction of an intestinal extract causing dogs to vomit (Harding and McDonald 1989 Peptides 10: 21-24). […] It has also been reported that PYY3-36 can cause nausea when administered peripherally to human subjects ([…] press release 29th of June 2004). From a physiological point of view it appears logically that PYY-and its biologically active conversion product-which normally first is secreted in large amounts during a very large meal or when food is dumped into the lower intestine due to various surgical procedures, is able to cause emesis and vomiting to relieve the subject from a situation of overt overeating. […] This is surprising since [[…]]PP has a relatively high potency on the Y2 receptor for which PYY3-36 is totally selective. […] Apparently, the Y4 receptor activation-conceivably in the area postreama-prevents the emetic effect of the Y2 activation form the same compound. This property of a combined Y2-Y4 selective agonist is of great benefit for the treatment of obesity and associated conditions.
Consider `CC[C@H](C)[C@H](NC(=O)[C@H](Cc1ccc(O)cc1)NC(=O)[C@H](CCCNC(=N)N)NC(=O)[C@H](CCCNC(=N)N)NC(=O)[C@H](CC(C)C)NC(=O)[C@H](CC(=O)O)NC(=O)[C@H](C)NC(=O)[C@H](C)NC(=O)[C@H](Cc1ccc(O)cc1)NC(=O)[C@H](CCC(N)=O)NC(=O)[C@H](C)NC(=O)[C@H](CCSC)NC(=O)[C@H](CCC(N)=O)NC(=O)[C@H](CCC(=O)O)NC(=O)[C@@H]1CCCN1C(=O)[C@@H](NC(=O)[C@H](C)NC(=O)[C@H](CC(N)=O)NC(=O)[C@H](CC(=O)O)NC(=O)CNC(=O)[C@@H]1CCCN1C(=O)[C@H](Cc1ccc(O)cc1)NC(=O)[C@@H](NC(=O)[C@@H]1CCCN1C(=O)[C@H](CCC(=O)O)NC(=O)[C@H](CC(C)C)NC(=O)[C@@H]1CCCN1C(=O)[C@H](C)N)C(C)C)[C@@H](C)O)C(=O)N[C@@H](CC(N)=O)C(=O)N[C@@H](CCSC)C(=O)N[C@@H](CC(C)C)C(=O)N[C@H](C(=O)N[C@@H](CCCNC(=N)N)C(=O)N[C@@H](CCC(N)=O)C(=O)N[C@@H](CCCNC(=N)N)C(=O)N[C@@H](Cc1ccc(O)cc1)C(N)=O)[C@@H](C)O` [[Gln34]hPP], for which the level at time molar was 12 to 13 nM.

Broadly, the EC50 is the midpoint of the concentration-response curve.
